Data published in patent US11161830B2, “4-pyridone compound or salt thereof, and pharmaceutical composition and formulation including same” (priority 2017, dated 2021).
Where two headings read alike, the source gives them in different places.

Experiments:
HBV (genotype CAT) = experiment: Test Example 2-2: anti-HBV assay in PXB-cells (fresh human hepatocytes); format: cell-based; conditions: Hepatitis B virus, Hepatocyte
Protocol: Using fresh human hepatocytes (PXB-cells, manufactured by PhenixBio Co., Ltd.) collected from a PXB mouse (a chimeric mouse with human hepatocytes), the anti-HBV activity of the representative compounds was evaluated in the following procedure.
(§1) The following was used as a medium:
DMEM (manufactured by Sigma)+0.25 μg/mL insulin (manufactured by Wako)+1% penicillin/streptomycin. (manufactured by Sigma)+20 mmol/L HEPES (manufactured by Sigma)+15 μg/mL L-proline (manufactured by Sigma)+50 nmol/L dexamethasone (manufactured by Sigma)+5 ng/mL EGF (manufactured by Peprotech)+0.1 mmol/L ascorbic acid 2-phosphate (manufactured by Wako)+10% FBS+2% DMSO
Each of the test compounds) was further added to the medium to prepare a test solution containing each of the test compounds at various concentrations.
(1) PXB-cells seeded at a seeding density of 2.1×10^5 cells/cm^2 in a 96-well microliter plate were incubated in a 5% CO2 incubator at 37° C. until a day on which the cells were infected.
(2) A HBV (genotype CAT) prepared by transfecting an HBV plasmid into an HepG2 cell was suspended in the medium containing 4% PEG-8000, and added to the plate of (1) at about 30 copies/cell such that the PXB cells were infected (100 μL/well), and the plate was incubated in a 5% CO2 incubator at 37° C. for 1 day.
(3) The culture supernatant on day 1 post infection was removed and the cells were washed three times with DMEM containing 10% FBS and 1% penicillin/streptomycin. Then, the medium was added to the plate (100 μL/well) and the plate was incubated in a 5% CO2 incubator at 37° C. for 1 day.
(4) The culture supernatant on day 2 post infection was removed and the cells were washed three times with DMEM containing 10% FBS and 1% penicillin/streptomycin. Then, the medium was added to the plate (100 μL/well) and the plate was incubated in a 5% CO2 incubator at 37° C. for 5 days.
(5) The culture supernatant on day 7 post infection was removed, the medium was added to the plate (100 μL/well), and the plate was incubated in a 5% CO2 incubator at 37° C. for 5 days.
(6) The culture supernatant on day 12 post infection was removed, the medium was added to the plate (100 μL/well), and the plate was incubated in a 5% CO2 incubator at 37° C. for 5 days.
(§2) (7) The culture supernatant on day 17 post infection was removed, the test solution was added to the plate (100 μL/well), and the plate was incubated in a 5% CO2 incubator at 37° C. for 5 days. As a control without the compound added, the medium was added to the plate (100 μL/well) and the plate was incubated in a 5% CO2 incubator at 37° C. for 5 days.
as §2, with “(8)” for “(7)”, “22” for “17”
as §2, with “(9)” for “(7)”, “27” for “17”
(10) The culture supernatant on day 32 post infection was collected.
(11) The collected culture supernatant on day 32 post infection was treated with a mixture of Buffer AL (manufactured by QIAGEN) and Proteinase K (manufactured by Invitrogen). The amount of HBV-DNA in the obtained solution was absolutely quantified by a real-time PCR method. In addition, the amount of HBsAg in the culture supernatant was absolutely quantified by chemiluminescent enzyme immunoassay using Lumipulse (registered trademark) HBsAg-HQ (manufactured by Fujirebio Inc.). A relative viral load (%) with respect to a control without the compound added was each calculated. […]

HBV = experiment: Test Example 1-1: anti-HBV assay in HepG2.2.15 cells (test solution 200 μL/well); format: cell-based, hepatitis B virus; conditions: Hepatitis B virus, culture supernatant
Protocol: Using HepG2.2.15 cells (Proc. Natl. Acad. Sci. USA, 84, 1005-1009, 1987) which have an HBV genome introduced into a hepatoblastoma cell line, HepG2, and persistently produce a virus, the anti-HBV activity of the representative compounds was evaluated in the following procedure.
as §1
DMEM/F-12, GlutaMAX (manufactured by Invitrogen)+5 μg/mL insulin (manufactured by Wako)+1% penicillin/streptomycin (manufactured by Sigma)+10 mmol/L HEPES (manufactured by Sigma)+50 μmol/L hydrocortisone (manufactured by Sigma)+10% FBS
A mixture of a test compound with dimethyl sulfoxide (DMSO) was further added to the medium to obtain a final concentration of DMSO of 0.25% (v/v), and thus, test solutions containing the test compound at various concentrations were prepared. In addition, a test solution obtained by adding DMSO alone to the medium to obtain a final concentration of 0.25% (v/v) was prepared as a control without addition of a drug.
(1) The HepG2.2.15 cells were suspended in the medium to prepare a. HepG2.2.15 cell suspension at 4×10^5 cells/mL. The suspension was seeded in a 96-well microtiter plate (100 μL/well) and the plate was incubated in a 5% CO2 incubator at 37° C. for 2 days.
(2) The culture supernatant was removed and the cells were washed twice with PBS (−) (100 μL/well).
(3) The test solution (200 μL/well) was added to the plate of (2) and the plate was incubated in a 5% CO2 incubator at 37° C. for 4 days.
(4) The culture supernatant was removed, the test solution (200 μL/well) was added again to the plate, and the plate was incubated in a 5% CO2 incubator at 37° C. for 3 days.
(5) The culture supernatant was collected and treated with a mixture of Buffer AL (manufactured by QIAGEN) and Proteinase K (manufactured by Invitrogen). The amount of DNA of HBV (HBV-DNA) in the obtained solution was absolutely quantified by a real-time PCR method. In addition, HBsAg (hepatitis B surface antigen) in the culture supernatant was absolutely quantified by chemiluminescent enzyme immunoassay using Lumipulse (registered trademark) HBsAg-HQ (manufactured by Fujirebio Inc.). The relative viral load (%) of a well with the compound added to a well without the compound added was calculated. An IC50 of the compound was calculated using a FORECAST function (linear regression method) of Microsoft Office Excel 2007 by plotting the logarithm of the concentration against the relative viral load as a real number.
The IC50 of HBV-DNA was defined as a concentration (or a logarithm dilution of the culture supernatant) of the compound, in which the amount of HBV-DNA is reduced by 50% as compared a control without the compound added.
In addition, the IC50 of HBsAg was defined as a concentration (or a logarithm dilution of the culture supernatant) of the compound, in which the amount of HBsAg is reduced by 50% as compared a control without the compound added.

SMILES | IC50 (HBV (genotype CAT); read-out: IC50 HBV-DNA, PXB-cells infected with HBV genotype CAT, culture supernatant on day 32 post infection) [µM] | IC50 (HBV (genotype CAT); read-out: IC50 HBsAg, PXB-cells infected with HBV genotype CAT, culture supernatant on day 32 post infection) [µM] | IC50 (HBV; read-out: IC50 HBV-DNA) [µM] | IC50 (HBV; read-out: IC50 HBsAg) [µM]
COCCN1CCN(c2nc3ccc(-n4cc(C(=O)O)c(=O)cc4-c4ccc(N5CCCC5)c(Cl)c4)cc3s2)CC1 [Example 6-5, 6-(3-chloro-4-(pyrrolidin-1-yl)phenyl)-1-(2-(4-(2-methoxyethyl)piperazine-1-yl)benzo[d]thiazol-6-yl)-4-oxo-1,4-dihydropyridine-3-carboxylic acid] | 0.076 | 0.061 | – | –
COC[C@H]1CCCN1c1nc2ccc(-n3cc(C(=O)O)c(=O)cc3-c3ccc(N4CC[C@@H](OC)C4)cc3)cc2s1 [Example 10-2, 1-(2-((R)-2-(methoxymethyl)pyrrolidin-1-yl)benzo[d]thiazol-6-yl)-6-(4-((R)-3-methoxypyrrolidin-1-yl)phenyl)-4-oxo-1,4-dihydropyridine-3-carboxylic acid] | – | – | 0.0052 | 0.0027
